Assay results from patent US20080075662A1, “Novel Method for Analyzing Nucleic Acid Et Use Thereof for Evaluating the Degree of Mrna Editing of the Serotonin 5-Ht2c Receptor” (priority 2002, published 2008).
[I] = hypoxanthine (inosine)

System: oligonucleotide complementary to the probe with the exception of the base complementary to the dI at position 15
Test: Specificity of the array of probes: hybridization with a single-mismatch oligonucleotide
Type: binding

“d(CAITICGTIITCCTITT) (DNA CANTNCGTNNTCCTNTT; DNA, [I] at 3, 5, 9, 10, 15, backbone not given here) [SEQ ID No. 32]” was tested, and the “hybridization with mismatched oligonucleotide” value (at the hybridization temperature chosen for all probes (between 61.1 and 54.13° C., preferably about 57.6° C.)) was “does not hybridize” and the Tm (duplex with oligonucleotide mismatched opposite the dI at position 15 of the probe) was 49.4 °C.
